# Molecular target: T1, human RORγ-LBD (Homo sapiens, UniProt P51449)
# T1 construct: made in house; host or cells: E. coli (BL-21)
# T1 sequence (P51449 262-518): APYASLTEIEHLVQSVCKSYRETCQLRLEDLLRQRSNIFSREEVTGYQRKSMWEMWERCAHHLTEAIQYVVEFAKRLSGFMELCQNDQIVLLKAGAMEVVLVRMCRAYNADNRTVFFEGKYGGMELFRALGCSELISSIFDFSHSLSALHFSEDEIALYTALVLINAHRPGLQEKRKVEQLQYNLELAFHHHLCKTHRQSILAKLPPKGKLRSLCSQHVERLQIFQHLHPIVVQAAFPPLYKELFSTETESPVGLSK
# Assay: ROR gamma coactivator peptide recruitment Alphascreen assay (RORγ-LBD binding to GRIP1 coactivator peptide)
# Type: biochemical
# Conditions: 5 nM human RORγ-LBD, 30 nM 7-β-hydroxycholesterol, 50 nM biotinylated GRIP1 coactivator peptide, overnight incubation at room temperature; read-out: result (pIC50, RORγ coactivator peptide recruitment Alphascreen assay) (converted)
# Description: Alphascreen™ is a bead-based amplified homogenous luminescent proximity assay that can be used for measuring the effect of compounds on protein-protein interactions. When biological interactions bring donor and acceptor beads into close proximity, reactive oxygen, generated upon laser excitation of the donor beads, initiates a luminescence/fluorescence cascade in the acceptor beads that leads to a highly amplified signal that can be measured as light in the 520-620 nm range. When the acceptor and donor beads are not in proximity, the reactive oxygen decays and only a very low background signal is generated.
# An in vitro assay to assess inhibition of RORγ binding to the coactivator GRIP1 was established using Alphascreen™ technology. The interaction between nuclear receptors (NR) and coactivator proteins is a key step in signal transduction from the receptor to the transcriptional machinery and can be measured in vitro using only the ligand binding domain of the nuclear receptor and a peptide containing a coactivator protein LXXLL nuclear receptor binding motif
# For the RORγ construct used in the coactivator recruitment assay, nucleotides corresponding to the ligand binding domain (LBD) of wild type human RORγ (amino acids 262-518 of Genbank Accession No. NM_005060.3) were cloned into the pET24 expression vector (Novagen), downstream of in-frame N-terminal 6×His and Flag tag sequences. Recombinant 6×His:Flag-tagged human RORγ-LBD protein was expressed in E. coli (BL-21) and purified by affinity chromatography on a nickel Sepharose column, followed by anion exchange chromatography.
# A 4× assay mixture of 6×His:Flag-tagged human RORγ-LBD with the agonist ligand 7-β-hydroxycholesterol was prepared in assay buffer (50 mM HEPES pH 7.4, BSA 0.05%, 150 mM NaCl, 5 mM MgCl2, 1 mM DTT, 0.01% Tween-20). For control wells a 4× mixture of 6×His:Flag-tagged human ROR gamma LBD alone was also prepared.
# A 4× stock of biotinylated coactivator peptide containing the LXXLL motif from GRIP1 (Biotin-[…]) was prepared in assay buffer.
# A 4×detection mixture of nickel chelate Alphascreen™ acceptor beads (PerkinElmer) and streptavidin Alphascreen™ donor beads (PerkinElmer) was prepared in assay buffer.
# Compounds to be tested were arranged in a pre-dose 384-well mother plate serially diluted 1 in 2 over 22 columns, in 100% DMSO, at 40× the final test concentration, from a high concentration of 4 mM. DMSO with no compound was placed in control columns. The compounds were robotically dispensed directly into assay plates containing assay buffer to a 4× final test concentration.
# Following compound addition, the 6×His:Flag-tagged human RORγ-LBD plus 7-β-hydroxycholesterol assay mixture, biotinylated coactivator peptide and detection mixture were added. Final assay conditions were 5 nM 6×His:Flag-tagged human RORγ-LBD, 30 nM 7-β-hydroxycholesterol, 50 nM biotinylated coactivator peptide, 2.5 ug/ml nickel acceptor beads and 10 ug/ml streptavidin donor beads. The final concentration of DMSO in the assay was 2.5%.
# After overnight incubation at room temperature plates were read on and Envision™ plate reader (PerkinElmer).
# Data was plotted and pIC50 values were calculated using the Genedata Screener™ data analysis suite (Genedata).
row,IC50 [nM],Structure (SMILES)
1,1.32,"C[C@@H]1C[C@@H](n2ncc(C(=O)N(CC(=O)c3c(Cl)cccc3Cl)[C@H]3CCC34CCC4)c2C(F)(F)F)CC[C@@H]1C(=O)O [Example 848, (1S,2R,4S)-4-(4-((2-(2,6-dichlorophenyl)-2-oxoethyl)((1S)-spiro[3.3]hept-1-yl)carbamoyl)-5-(trifluoromethyl)-1H-pyrazol-1-yl)-2-methylcyclohexanecarboxylic acid]"
2,2,"CC1(C)[C@@H]2C[C@H](N(CC(=O)c3c(Cl)cccc3Cl)C(=O)c3cnn([C@H]4C[C@@H](CC(=O)O)C4)c3C(F)(F)F)C[C@@H]21 (single isomer, unassigned) [Example 858]"
3,2.95,"C[C@@H]1CC(n2ncc(C(=O)N(CC(=O)c3c(Cl)cccc3Cl)CC(C)(C)C)c2C(F)(F)F)CCC1C(=O)O (stereo in doubt) [Example 794, (1S,2R,4S)-4-(4-((2-(2,6-dichlorophenyl)-2-oxoethyl)(2,2-dimethylpropyl)carbamoyl)-5-(trifluoromethyl)-1H-pyrazol-1-yl)-2-methylcyclohexanecarboxylic acid]"
4,2.69,"C[C@@H]1C[C@@H](n2ncc(C(=O)N(CC(=O)c3c(Cl)cncc3Cl)CC3(C(F)(F)F)CC3)c2C(F)(F)F)CC[C@@H]1C(=O)O [Example 830, (1S,2R,4S)-4-(4-((2-(3,5-dichloro-4-pyridinyl)-2-oxoethyl)((1-(trifluoromethyl)cyclopropyl)methyl)carbamoyl)-5-(trifluoromethyl)-1H-pyrazol-1-yl)-2-methylcyclohexanecarboxylic acid]"
5,3.98,"C[C@@H]1C[C@@H](n2ncc(C(=O)N(CC(=O)c3c(Cl)cncc3Cl)CC3(C)CCC3)c2C(F)(F)F)CC[C@@H]1C(=O)O [Example 782, (1S,2R,4S)-4-(4-((2-(3,5-dichloro-4-pyridinyl)-2-oxoethyl)((1-methylcyclobutyl)methyl)carbamoyl)-5-(trifluoromethyl)-1H-pyrazol-1-yl)-2-methylcyclohexanecarboxylic acid]"
6,6.03,"C[C@H]1C[C@@H](n2ncc(C(=O)N(CC(=O)c3c(Cl)cncc3Cl)CC(C)(C)C)c2C(F)(F)F)CC[C@@H]1C(=O)O (single isomer, unassigned) [Example 813]"
7,2.09,"C[C@@H]1C[C@@H](n2ncc(C(=O)N(CC(=O)c3c(Cl)cccc3Cl)[C@H]3C[C@@H]4[C@H](C3)C4(C)C)c2C(F)(F)F)CC[C@@H]1C(=O)O [Example 787, (1S,2R,4S)-4-(4-((2-(2,6-dichlorophenyl)-2-oxoethyl)((1R,3r,5S)-6,6-dimethylbicyclo[3.1.0]hex-3-yl)carbamoyl)-5-(trifluoromethyl)-1H-pyrazol-1-yl)-2-methylcyclohexanecarboxylic acid]"

# The next lines start with the compound.
row,Structure (SMILES),IC50 [nM]
1,"Cc1cc(Cl)c(C(=O)CN(Cc2ccc(C(F)(F)F)cc2)C(=O)c2cnn([C@H]3CC[C@H](C(=O)O)CC3)c2C(F)(F)F)c(Cl)c1 [Example 528, trans-4-(4-((2-(2,6-dichloro-4-methylphenyl)-2-oxoethyl)(4-(trifluoromethyl)benzyl)carbamoyl)-5-(trifluoromethyl)-1H-pyrazol-1-yl)cyclohexanecarboxylic acid]",4.17
2,"CCC(C)(C)CN(CC(=O)c1c(F)cccc1Cl)C(=O)c1cnn([C@H]2CC[C@](C)(C(=O)O)CC2)c1C(F)(F)F [Example 657, trans-4-(4-((2-(2-chloro-6-fluorophenyl)-2-oxoethyl)(2,2-dimethylbutyl)carbamoyl)-5-(trifluoromethyl)-1H-pyrazol-1-yl)-1-methylcyclohexanecarboxylic acid]",2.24
3,"CC1(CN(CC(=O)c2c(Cl)cncc2Cl)C(=O)c2cnn([C@H]3CC[C@H](C(=O)O)C(C)(C)C3)c2C(F)(F)F)CCC1 [Example 825, (1S,4S)-4-(4-((2-(3,5-dichloro-4-pyridinyl)-2-oxoethyl)((1-methylcyclobutyl)methyl)carbamoyl)-5-(trifluoromethyl)-1H-pyrazol-1-yl)-2,2-dimethylcyclohexanecarboxylic acid]",1.38
4,"Cc1cc(Cl)c(C(=O)CN(CCC2CC2)C(=O)c2cnn([C@H]3CC[C@](C)(C(=O)O)CC3)c2C(F)(F)F)c(Cl)c1 [Example 777, trans-4-(4-((2-cyclopropylethyl)(2-(2,6-dichloro-4-methylphenyl)-2-oxoethyl)carbamoyl)-5-(trifluoromethyl)-1H-pyrazol-1-yl)-1-methylcyclohexanecarboxylic acid]",4.27
5,"C=CC[C@@H]1CCCC[C@@H]1n1ncc(C(=O)N(CC(=O)c2c(Cl)cncc2Cl)CC(C)(C)C)c1C(F)(F)F (stereo in doubt) [Example 586, N-(2-(3,5-dichloro-4-pyridinyl)-2-oxoethyl)-N-(2,2-dimethylpropyl)-1-((1S,2S)-2-(2-propen-1-yl)cyclohexyl)-5-(trifluoromethyl)-1H-pyrazole-4-carboxamide]",331
6,"CCOC(C)(C)CN(CC(=O)c1c(Cl)cncc1Cl)C(=O)c1cnn([C@H]2CC[C@](C)(C(=O)O)CC2)c1C(F)(F)F [Example 850, trans-4-(4-((2-(3,5-dichloro-4-pyridinyl)-2-oxoethyl)(2-ethoxy-2-methylpropyl)carbamoyl)-5-(trifluoromethyl)-1H-pyrazol-1-yl)-1-methylcyclohexanecarboxylic acid]",12.9
7,"C[C@]1(C(=O)O)CC[C@H](n2ncc(C(=O)N(CC(=O)c3c(Cl)cncc3Cl)C[C@H]3CC3(F)F)c2C(F)(F)F)CC1 [Example 819, trans-4-(4-((2-(3,5-dichloro-4-pyridinyl)-2-oxoethyl)(((1R)-2,2-difluorocyclopropyl)methyl)carbamoyl)-5-(trifluoromethyl)-1H-pyrazol-1-yl)-1-methylcyclohexanecarboxylic acid]",50.1
8,"C[C@]1(C(=O)O)CC[C@H](n2ncc(C(=O)N3CC4(CC=CC4)C[C@@H]3Cc3c(Cl)cncc3Cl)c2C(F)(F)F)CC1 [Example 576, trans-4-(4-(((3R)-3-((3,5-dichloro-4-pyridinyl)methyl)-2-azaspiro[4.4]non-7-en-2-yl)carbonyl)-5-(trifluoromethyl)-1H-pyrazol-1-yl)-1-methylcyclohexanecarboxylic acid]",34.7
9,"Cc1cc(Cl)c(C(=O)CN(CC2CCCCC2)C(=O)c2cnn([C@H]3CC[C@H](C(=O)O)CC3)c2C(F)(F)F)c(Cl)c1 [Example 537, trans-4-(4-((cyclohexylmethyl)(2-(2,6-dichloro-4-methylphenyl)-2-oxoethyl)carbamoyl)-5-(trifluoromethyl)-1H-pyrazol-1-yl)cyclohexanecarboxylic acid]",2.24
10,"C[C@]1(C(=O)O)CC[C@H](n2ncc(C(=O)N(CC(=O)c3c(Cl)cncc3Cl)CC3(F)CC3)c2C(F)(F)F)CC1 [Example 593, trans-4-(4-((2-(3,5-dichloro-4-pyridinyl)-2-oxoethyl)((1-fluorocyclopropyl)methyl)carbamoyl)-5-(trifluoromethyl)-1H-pyrazol-1-yl)-1-methylcyclohexanecarboxylic acid]",33.1
11,"Cc1cc(Cl)c(C(=O)CN(CC2(C)COC2)C(=O)c2cnn([C@H]3CC[C@](C)(C(=O)O)CC3)c2C(F)(F)F)c(Cl)c1 [Example 676, trans-4-(4-((2-(2,6-dichloro-4-methylphenyl)-2-oxoethyl)((3-methyl-3-oxetanyl)methyl)carbamoyl)-5-(trifluoromethyl)-1H-pyrazol-1-yl)-1-methylcyclohexanecarboxylic acid]",51.3

# — patent publication US9365522B2, “Pyrazole amide derivative” (AMGEN INC., priority 2015, dated 2016)
